Measured values reported in patent publication US11572590B2, “Methods for evaluating tumor cell spheroids using 3D microfluidic cell culture device” (Dana-Farber Cancer Institute, Inc., priority 2017, dated 2023).
Where two headings read alike, the source gives them in different places.

Assays:
off-target kinases = off-target kinases (Homo sapiens, UniProt P06241); assay: SelectScreen Kinase Profiling, single point inhibition and IC50 for off-target kinases; assay type: biochemical; parameters: other: FYN A; 1000 μM; details: FYN A, LanthaScreen Binding
Chain of off-target kinases (P06241 whole entry): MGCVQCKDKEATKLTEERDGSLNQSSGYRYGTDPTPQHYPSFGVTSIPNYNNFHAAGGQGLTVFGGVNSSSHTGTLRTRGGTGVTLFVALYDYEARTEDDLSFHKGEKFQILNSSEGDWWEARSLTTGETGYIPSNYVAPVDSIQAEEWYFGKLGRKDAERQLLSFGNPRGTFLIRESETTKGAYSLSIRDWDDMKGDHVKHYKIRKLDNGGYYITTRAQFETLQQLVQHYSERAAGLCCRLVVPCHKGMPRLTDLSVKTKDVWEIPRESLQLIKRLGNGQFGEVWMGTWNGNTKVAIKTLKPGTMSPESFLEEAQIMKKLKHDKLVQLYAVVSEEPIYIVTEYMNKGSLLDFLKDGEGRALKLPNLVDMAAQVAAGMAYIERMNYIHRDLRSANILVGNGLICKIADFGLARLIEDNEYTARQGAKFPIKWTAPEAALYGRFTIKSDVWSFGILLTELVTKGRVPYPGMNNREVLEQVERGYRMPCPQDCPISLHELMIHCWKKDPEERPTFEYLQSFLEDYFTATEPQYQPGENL
Experimental: Biochemical single point inhibition and IC50 concentrations for TBK1, IKKε (IKBKE), and off-target kinases were determined at ThermoFisher Scientific using SelectScreen Kinase Profiling Services (Madison, Wis., USA) (Tables S4A and S4B-1-7). To determine cellular potency, the human colorectal cancer carcinoma cell line HCT116 (ATCC, Manassas, Va.) was maintained in T175 flasks in complete RPMI medium; RPMI 1640 supplemented with 10% FBS, 1× Penicillin-Streptomycin solution and 1×MEM (non-essential amino acids). HCT116 cells were grown to 90-95% confluency in T175 flasks containing complete RPMI medium and transfected in bulk using Lipofectamine 2000 (Invitrogen, Carlsbad, Calif.) with 70 μg of ISG54-luciferase reporter plasmid (Elim Biopharmaceuticals Inc., Hayward, Calif.). The reporter plasmid contains a luciferase gene expression cassette under the transcriptional regulation of the promoter of the human interferon stimulated gene 54 (ISG54). […] The assay plates were incubated for 5 hours at 37° C., followed by addition of One-Glo luciferase firefly reagent (Promega, Madison, Wis.) at 1:1 volume/well and luminescence was measured in an EnVision Multilabel Plate Reader (PerkinElmer, Santa Clara, Calif.). The EC50 values were calculated from the fit of the dose-response curves to a four-parameter equation. […]

B16F10 lung metastases = assay: B16F10 tail vein injection model, lung metastases; assay type: in vivo, mouse; details: Compound 1 40 mg/kg daily for 13 days ± anti-PD-L1 10 mg/kg
Experimental: Combination studies were performed by vivoPharm (Hummelstown, Pa., USA). All procedures used in the performance of these studies were carried out in accordance with vivoPharm's Standard Operating Procedures, with particular reference to US_SOPvP_EF0314 “General Procedures for Efficacy Studies.” CT26 colon carcinoma cells (1×10^6 cells/mouse in 100 μL, passage 2-3) were re-suspended in serum-free DMEM and implanted in the upper right flank of 11-12 week old female Balb/c mice (Charles River Laboratories). Mice were randomized into four groups of 10 using a matched pair distribution method based on tumor size for CT26. Treatment was initiated 12 days post-inoculation with mean tumor volume at start of dosing of 125.85 mm^3. Vehicle or Compound 1 (40 mg/kg) was administered by oral gavage daily for 26 days and isotype control or a reverse chimera anti-PD-L1 cloned from literature reports (e.g., Deng, R. et al. MAbs (2016), the content of which is incorporated herein by reference in entirety) and placed into a mouse IgG1 framework (10 mg/kg) was administered every 5 days for a total of six doses. Investigators were not blinded to treatment groups. […] Mice were sacrificed on Day 13 and lung metastases were quantified (small ≤1 mm, medium >1 mm and ≤3 mm, large >3 mm). No large lung metastases were detected.

## N#Cc1cc(-c2ncnc(Nc3ccc(N4CCN(C5COC5)CC4)cc3)n2)ccc1OC1CCOCC1 [Compound 1, 5-(4-((4-(4-(oxetan-3-yl)piperazin-1-yl)phenyl)amino)-1,3,5-triazin-2-yl)-2-((tetrahydro-2H-pyran-4-yl)oxy)benzonitrile]
off-target kinases; read-out: % Inhibition 1
  inhibition: 16%
off-target kinases; read-out: % Inhibition 2
  inhibition: 21%
B16F10 lung metastases
  sensitization of B16F10 tail vein model to PD-L1 blockade (lung metastases): could not be sensitized
